This is an account of results in ChEMBL document CHEMBL1143068, “Isoform-selective inhibition of the human UDP-glucuronosyltransferase 2B7 by isolongifolol derivatives” (J Med Chem, 2007).

For orientation: Ki means the equilibrium dissociation constant of an inhibitor or competing ligand from its target. What is called inhibition is the drop in the measured response relative to a control, in per cent.

One data set has as its target T1, UGT2B28 (Homo sapiens, UniProt Q9BY64).
T1 sequence (Q9BY64 whole entry): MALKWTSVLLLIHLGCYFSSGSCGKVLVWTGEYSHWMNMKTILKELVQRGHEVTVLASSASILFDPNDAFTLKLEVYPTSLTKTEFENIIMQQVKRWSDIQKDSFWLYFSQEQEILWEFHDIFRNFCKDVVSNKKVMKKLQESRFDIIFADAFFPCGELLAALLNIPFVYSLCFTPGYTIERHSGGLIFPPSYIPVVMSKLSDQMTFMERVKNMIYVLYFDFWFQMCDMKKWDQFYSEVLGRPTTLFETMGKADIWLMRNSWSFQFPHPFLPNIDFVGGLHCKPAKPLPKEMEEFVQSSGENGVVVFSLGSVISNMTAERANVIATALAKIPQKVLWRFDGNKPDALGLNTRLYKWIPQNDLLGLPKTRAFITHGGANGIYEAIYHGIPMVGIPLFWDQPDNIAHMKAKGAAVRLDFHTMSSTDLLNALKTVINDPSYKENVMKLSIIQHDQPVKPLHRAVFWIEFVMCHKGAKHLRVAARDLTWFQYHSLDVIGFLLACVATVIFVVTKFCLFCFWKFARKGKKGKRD
The data set can be described thus: Inhibition of human recombinant UGT2B28 at 25 uM by fluorescence spectroscopy. The arrangement: scale not given: the % may be the effect or the level left. To be noted: read-out: Activity.

For the next data set, the target named is T2, UGT2B4 (Homo sapiens, UniProt P06133).
T2 sequence (P06133 whole entry): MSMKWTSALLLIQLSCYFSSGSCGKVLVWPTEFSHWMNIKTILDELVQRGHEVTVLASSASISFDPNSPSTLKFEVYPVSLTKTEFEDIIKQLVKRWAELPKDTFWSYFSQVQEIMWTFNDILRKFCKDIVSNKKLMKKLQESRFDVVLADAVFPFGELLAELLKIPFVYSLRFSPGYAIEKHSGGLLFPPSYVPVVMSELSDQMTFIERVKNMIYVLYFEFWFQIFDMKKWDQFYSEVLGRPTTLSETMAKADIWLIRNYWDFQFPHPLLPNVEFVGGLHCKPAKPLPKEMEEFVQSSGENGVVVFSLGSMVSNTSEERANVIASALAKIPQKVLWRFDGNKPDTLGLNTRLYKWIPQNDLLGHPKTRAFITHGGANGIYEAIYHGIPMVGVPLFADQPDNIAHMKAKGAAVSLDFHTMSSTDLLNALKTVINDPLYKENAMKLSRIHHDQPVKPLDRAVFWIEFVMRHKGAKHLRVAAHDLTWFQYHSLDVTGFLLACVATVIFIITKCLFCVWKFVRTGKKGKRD
Put plainly: Inhibition of human recombinant UGT2B4 at 25 uM by fluorescence spectroscopy. The arrangement: scale not given: the % may be the effect or the level left. The conditions noted are these: read-out: Activity.

The next data set deals with T3, UGT2B15 (Homo sapiens, UniProt P54855).
T3 sequence (P54855 whole entry): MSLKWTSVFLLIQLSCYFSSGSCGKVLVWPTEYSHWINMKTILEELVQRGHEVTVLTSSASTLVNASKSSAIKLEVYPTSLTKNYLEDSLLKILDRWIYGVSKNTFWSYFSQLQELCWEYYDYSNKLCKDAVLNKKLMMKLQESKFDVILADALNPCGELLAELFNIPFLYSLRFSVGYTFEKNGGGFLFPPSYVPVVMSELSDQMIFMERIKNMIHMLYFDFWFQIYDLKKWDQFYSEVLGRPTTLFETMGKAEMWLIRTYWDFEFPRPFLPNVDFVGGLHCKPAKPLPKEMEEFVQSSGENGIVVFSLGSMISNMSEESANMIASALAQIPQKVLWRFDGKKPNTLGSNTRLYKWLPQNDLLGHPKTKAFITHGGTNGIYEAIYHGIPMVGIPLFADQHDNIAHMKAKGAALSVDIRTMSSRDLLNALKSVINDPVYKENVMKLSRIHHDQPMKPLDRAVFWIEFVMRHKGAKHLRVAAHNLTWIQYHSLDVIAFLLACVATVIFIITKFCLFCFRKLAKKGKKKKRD
Put plainly: Inhibition of human recombinant UGT2B15 at 25 uM by fluorescence spectroscopy. The conditions noted are these: read-out: Activity. The arrangement: scale not given: the % may be the effect or the level left.

The target of data set [1] is T4, UDP-glucuronosyltransferase 2B17 (Homo sapiens, UniProt O75795).
T4 sequence (O75795 whole entry): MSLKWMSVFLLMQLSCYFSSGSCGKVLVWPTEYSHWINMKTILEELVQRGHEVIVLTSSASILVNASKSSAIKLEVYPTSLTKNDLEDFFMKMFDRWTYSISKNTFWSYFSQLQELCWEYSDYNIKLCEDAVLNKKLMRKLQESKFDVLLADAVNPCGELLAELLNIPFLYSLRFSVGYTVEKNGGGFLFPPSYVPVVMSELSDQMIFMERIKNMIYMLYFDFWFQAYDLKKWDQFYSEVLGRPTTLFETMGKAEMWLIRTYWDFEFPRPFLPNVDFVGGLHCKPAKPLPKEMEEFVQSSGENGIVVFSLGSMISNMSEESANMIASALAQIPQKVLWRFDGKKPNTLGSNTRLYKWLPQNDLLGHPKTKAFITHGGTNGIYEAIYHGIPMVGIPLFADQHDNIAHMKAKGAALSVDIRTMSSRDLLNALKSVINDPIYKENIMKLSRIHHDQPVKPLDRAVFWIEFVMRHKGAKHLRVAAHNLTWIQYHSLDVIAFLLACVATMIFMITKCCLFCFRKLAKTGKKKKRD
Put plainly: Inhibition of human recombinant UGT2B17 assessed as reduction of scopoletin glucuronidation.

The next data set addresses T5, UGT2B17 (Homo sapiens, UniProt O75795).
T5 sequence (O75795 whole entry): T4 sequence (O75795 whole entry)
Put plainly: Inhibition of human recombinant UGT2B17 at 25 uM by fluorescence spectroscopy.

Another data set addresses T6, UGT2B10 (Homo sapiens, UniProt P36537).
T6 sequence (P36537 whole entry): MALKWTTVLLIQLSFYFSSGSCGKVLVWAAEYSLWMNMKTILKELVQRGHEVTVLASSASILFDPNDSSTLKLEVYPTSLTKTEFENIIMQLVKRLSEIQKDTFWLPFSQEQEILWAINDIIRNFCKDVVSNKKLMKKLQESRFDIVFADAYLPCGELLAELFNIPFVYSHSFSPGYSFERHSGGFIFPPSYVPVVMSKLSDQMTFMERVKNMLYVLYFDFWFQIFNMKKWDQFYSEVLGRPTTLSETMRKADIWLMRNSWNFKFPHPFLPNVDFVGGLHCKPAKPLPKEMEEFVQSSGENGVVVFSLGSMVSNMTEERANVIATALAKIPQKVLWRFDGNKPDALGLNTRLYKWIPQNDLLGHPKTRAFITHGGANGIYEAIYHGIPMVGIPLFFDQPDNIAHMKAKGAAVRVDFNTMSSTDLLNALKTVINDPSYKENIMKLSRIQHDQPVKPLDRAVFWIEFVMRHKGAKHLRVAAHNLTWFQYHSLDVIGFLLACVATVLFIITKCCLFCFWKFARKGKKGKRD
The data set can be described thus: Inhibition of human recombinant UGT2B10 at 25 uM by fluorescence spectroscopy. The arrangement: scale not given: the % may be the effect or the level left. The conditions noted are these: read-out: Activity.

For the molecule `CC1(C)CCC[C@]2(C)[C@@H]([C@@H](O)c3ccccc3)[C@H]3CC[C@@H]2[C@H]31`, the activity at 25 µM at UGT2B28, at UGT2B4, on UGT2B15 and on UGT2B10 was 30% in each case. The inhibitory constant (Ki) in data set [1] came to 21.8 µM. For the same molecule, the inhibition at 25 µM on UGT2B17 is 70%.
